Source: ChEMBL document CHEMBL1140663, “Effect of the minor ABA metabolite 7'-hydroxy-ABA on Arabidopsis ABA 8'-hydroxylase CYP707A3” (Bioorg Med Chem Lett, 2007)

What was measured:
[1] = target: T1, Abscisic acid 8'-hydroxylase 3 (Arabidopsis thaliana, UniProt Q9FH76); assay: Inhibition of recombinant CYP707A3 at 50 uM
T1 sequence (Q9FH76 whole entry): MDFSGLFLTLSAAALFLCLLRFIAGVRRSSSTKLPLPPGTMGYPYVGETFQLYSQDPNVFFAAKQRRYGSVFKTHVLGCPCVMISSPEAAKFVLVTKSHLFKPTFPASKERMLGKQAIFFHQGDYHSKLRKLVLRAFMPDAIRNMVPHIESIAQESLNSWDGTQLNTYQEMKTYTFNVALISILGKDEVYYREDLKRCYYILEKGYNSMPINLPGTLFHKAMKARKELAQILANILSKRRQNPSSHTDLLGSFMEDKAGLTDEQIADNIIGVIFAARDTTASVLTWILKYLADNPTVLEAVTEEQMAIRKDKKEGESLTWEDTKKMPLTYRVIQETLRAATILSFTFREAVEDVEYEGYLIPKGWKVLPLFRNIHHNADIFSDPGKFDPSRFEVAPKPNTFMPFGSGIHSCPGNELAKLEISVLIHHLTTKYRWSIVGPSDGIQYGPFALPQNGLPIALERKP

[2] = target: T1, Abscisic acid 8'-hydroxylase 3; assay: Inhibition of recombinant CYP707A3 at 5 uM

SMILES	inhibition at 50 µM [1] [%]	inhibition at 5 µM [2] [%]
CC(=C/C(=O)O)/C=C/[C@@]1(O)C(C=O)=CC(=O)CC1(C)C	63	15
CC(=C/C(=O)O)/C=C/[C@H]1C(CO)=CC(=O)CC1(C)C	24	0
CC(=C/C(=O)O)/C=C/[C@@]1(O)C(CO)=CC(=O)CC1(C)C	0	0
